Test system: female 129S6/SvEv mice
Assay: Forced swim test (FST), immobility time, after stress
[1] = 0.1 mg/kg, 1 week prophylactic drug
[2] = 0.3 mg/kg, 1 week prophylactic drug
[3] = 2.5 mg/kg, 1 week prophylactic drug
[4] = 10 mg/kg, 1 week prophylactic drug
[5] = Forced Swim Test Day 1, Dunnett test Sal vs. drug (0.025), 1 week prophylactic drug
[6] = Forced Swim Test Day 1, Dunnett test Sal vs. drug (0.075), 1 week prophylactic drug
[7] = Forced Swim Test Day 1, Dunnett test Sal vs. drug (0.1), 1 week prophylactic drug
[8] = Forced Swim Test Day 1, Dunnett test Sal vs. drug (0.3), 1 week prophylactic drug
[9] = Forced Swim Test Day 1, Dunnett test Sal vs. drug (2.5), 1 week prophylactic drug
[10] = Forced Swim Test Day 1, Dunnett test Sal vs. drug (10), 1 week prophylactic drug

SMILES: N[C@]1(c2ccccc2Cl)CCC[C@H](O)C1=O [(2S,6S)-HNK]
- p, Sal vs. drug, Dunnett test: Immobility Time (min 1), Forced Swim Test Day 2 [1]: 0.0291
- p, Sal vs. drug, Dunnett test: Immobility Time (min 1-6), Forced Swim Test Day 2 [1]: 0.2191
- p, Sal vs. drug, Dunnett test: Immobility Time (min 2), Forced Swim Test Day 2 [1]: 0.4741
- p, Sal vs. drug, Dunnett test: Immobility Time (min 4), Forced Swim Test Day 2 [1]: 0.9995
- p, Sal vs. drug, Dunnett test: Immobility Time (min 5), Forced Swim Test Day 2 [1]: 0.9990
- p, Sal vs. drug, Dunnett test: Immobility Time (min 6), Forced Swim Test Day 2 [1]: 0.9952
- p, Sal vs. drug, Dunnett test: Immobility Time Average (min 3-6), Forced Swim Test Day 2 [1]: 0.9623
- p, Sal vs. drug, Dunnett test: Immobility Time (min 1), Forced Swim Test Day 2 [2]: 0.2627
- p, Sal vs. drug, Dunnett test: Immobility Time (min 1-6), Forced Swim Test Day 2 [2]: 0.9993
- p, Sal vs. drug, Dunnett test: Immobility Time (min 2), Forced Swim Test Day 2 [2]: 0.7509
- p, Sal vs. drug, Dunnett test: Immobility Time (min 4), Forced Swim Test Day 2 [2]: 0.9997
- p, Sal vs. drug, Dunnett test: Immobility Time (min 5), Forced Swim Test Day 2 [2]: 0.9882
- p, Sal vs. drug, Dunnett test: Immobility Time (min 6), Forced Swim Test Day 2 [2]: 0.4546
- p, Sal vs. drug, Dunnett test: Immobility Time Average (min 3-6), Forced Swim Test Day 2 [2]: 0.9999
- p, Sal vs. drug, Dunnett test: Immobility Time (min 1), Forced Swim Test Day 2 [3]: 0.9998
- p, Sal vs. drug, Dunnett test: Immobility Time (min 1-6), Forced Swim Test Day 2 [3]: 0.5400
- p, Sal vs. drug, Dunnett test: Immobility Time (min 2), Forced Swim Test Day 2 [3]: >0.9999
- p, Sal vs. drug, Dunnett test: Immobility Time (min 4), Forced Swim Test Day 2 [3]: 0.8764
- p, Sal vs. drug, Dunnett test: Immobility Time (min 5), Forced Swim Test Day 2 [3]: 0.6601
- p, Sal vs. drug, Dunnett test: Immobility Time (min 6), Forced Swim Test Day 2 [3]: 0.9992
- p, Sal vs. drug, Dunnett test: Immobility Time Average (min 3-6), Forced Swim Test Day 2 [3]: 0.9957
- p, Sal vs. drug, Dunnett test: Immobility Time (min 1), Forced Swim Test Day 2 [4]: 0.6616
- p, Sal vs. drug, Dunnett test: Immobility Time (min 1-6), Forced Swim Test Day 2 [4]: >0.9999
- p, Sal vs. drug, Dunnett test: Immobility Time (min 2), Forced Swim Test Day 2 [4]: 0.9991
- p, Sal vs. drug, Dunnett test: Immobility Time (min 4), Forced Swim Test Day 2 [4]: 0.9999
- p, Sal vs. drug, Dunnett test: Immobility Time (min 5), Forced Swim Test Day 2 [4]: 0.9877
- p, Sal vs. drug, Dunnett test: Immobility Time (min 6), Forced Swim Test Day 2 [4]: 0.9994
- p, Sal vs. drug, Dunnett test: Immobility Time Average (min 3-6), Forced Swim Test Day 2 [4]: 0.9999
- * (significance), Immobility Time (min 1) [5]: ** (** p<0.01)
- p, Immobility Time (min 1) [5]: 0.0031
- p, Immobility Time (min 1-6) [5]: 0.8484
- p, Immobility Time (min 3) [5]: 0.9997
- p, Immobility Time (min 4) [5]: >0.9999
- p, Immobility Time (min 5) [5]: >0.9999
- p, Immobility Time (min 6) [5]: 0.9993
- p, Immobility Time Average (min 3-6) [5]: 0.9997
- p, Immobility Time (min 1) [6]: 0.0820
- p, Immobility Time (min 1-6) [6]: 0.0650
- p, Immobility Time (min 3) [6]: 0.9489
- p, Immobility Time (min 4) [6]: 0.9482
- p, Immobility Time (min 5) [6]: 0.9436
- p, Immobility Time (min 6) [6]: 0.6982
- p, Immobility Time Average (min 3-6) [6]: 0.7901
- * (significance), Immobility Time (min 1) [7]: *** (*** p<0.0001)
- p, Immobility Time (min 1) [7]: <0.0001
- p, Immobility Time (min 1-6) [7]: 0.5664
- p, Immobility Time (min 3) [7]: 0.9993
- p, Immobility Time (min 4) [7]: 0.9993
- p, Immobility Time (min 5) [7]: 0.9869
- p, Immobility Time (min 6) [7]: >0.9999
- p, Immobility Time Average (min 3-6) [7]: 0.9992
- * (significance), Immobility Time (min 1) [8]: * (* p<0.05)
- * (significance), Immobility Time (min 1-6) [8]: * (* p<0.05)
- p, Immobility Time (min 1) [8]: 0.0277
- p, Immobility Time (min 1-6) [8]: 0.0361
- p, Immobility Time (min 3) [8]: 0.4573
- p, Immobility Time (min 4) [8]: 0.8163
- p, Immobility Time (min 5) [8]: 0.9482
- p, Immobility Time (min 6) [8]: 0.6194
- p, Immobility Time Average (min 3-6) [8]: 0.5532
- * (significance), Immobility Time (min 1) [9]: * (* p<0.05)
- p, Immobility Time (min 1) [9]: 0.0147
- p, Immobility Time (min 1-6) [9]: 0.9878
- p, Immobility Time (min 3) [9]: 0.9995
- p, Immobility Time (min 4) [9]: 0.9958
- p, Immobility Time (min 5) [9]: 0.9958
- p, Immobility Time (min 6) [9]: 0.9992
- p, Immobility Time Average (min 3-6) [9]: 0.9990
- * (significance), Immobility Time (min 1) [10]: ** (** p<0.01)
- p, Immobility Time (min 1) [10]: 0.0064
- p, Immobility Time (min 1-6) [10]: >0.9999
- p, Immobility Time (min 3) [10]: 0.9307
- p, Immobility Time (min 4) [10]: 0.9497
- p, Immobility Time (min 5) [10]: 0.9952
- p, Immobility Time (min 6) [10]: 0.5393
- p, Immobility Time Average (min 3-6) [10]: 0.8035
- Immobility on FST Day 2 vs saline (all doses of (2S,6S)-HNK and all other dose groups, 1 week before CFC, female mice): failed to reduce average immobility
- Prophylactic efficacy against stress-induced depressive-like behavior (single injection 1 week before stressor, female mice): but not (2S,6S)-HNK

From patent US11491120B2, “Pharmacological prophylactics against stress-induced affective disorders in females” (The Trustees of Columbia University in the City of New York, priority 2017, dated 2022)
